Like-named read-outs stand apart in the source and are kept apart here.
Experiments:
cholesterol biosynthesis = experiment: In vivo inhibition test on cholesterol biosynthesis in mice; parameters: species or system mouse (Crj:ICR-strain); conditions: n = 5, 30 mg/kg oral; for 14C-Cholesterol in serum: control group 3783 (for 1-71), 5694 (for 2-64, 2-71, 2-72); for Inhibition Rate on cholesterol biosynthesis: vs control group
Description: In Vivo Inhibition Test on Cholesterol Biosynthesis
For this test, Crj:ICR-strain male mice aged 7-9 weeks were provided. The mice were fed with a diet containing 2% cholestyramine for 7 to 10 days under reversed lighting condition, namely the mice were placed in dark condition during 7:00 AM to 7:00 PM. Each of the test compounds was dissolved or suspended in either distillated water or 1% aqueous solution of poly(oxyethylene) curing castor oil and was orally administrated to the mice at a dose of 30 mg/kg at 10:30 AM, respectively. After 1 hour following to the administration of the test compound, the mice were intraperitoneally administrated with ^14 C-sodium acetate at a dose of 5 μCi/0.5 ml/mouse, respectively. After 2 hours, blood sampling was performed for each mouse from the abdominal aorta under anesthesia with ether and the blood sampled were placed into plastic test tubes being placed with blood separating agent beforehand to separate the serum, respectively. Each 0.5 ml of the serum was then added with 1 ml of 20% ethanol solution of potassium hydroxide and heated for 3 hours at 75° C. After extracting the unsponified substance with n-hexane, the serum was condensed to the dry hard state and dissolved in small amount of a mixed solution of chloroform and methanol (mixing ratio; 1:2). The resultant chloroform-methanol solution was then spotted on pre-coated silica gel TLC and developed with a mixed solution of benzene and ethyl acetate (mixing ratio; 9:1). The cholesterol spot was then taken out and the radio-activity thereof was measured by using a liquid scintillation counter. Based on the radio-activity measured, the inhibition rate on cholesterol biosynthesis were determined respectively for the compounds of the present invention.

[1] = tested on: Triton WR-1339-Induced Hyperlipemia Mice; experiment: Effect on serum lipid in Triton WR-1339-induced hyperlipemia mice; type: in vivo, mouse (Crj:ICR-strain); conditions: Mus musculus, po (3 x 33.3 mg/kg), average of 10 animals, 24 hours
Description: For this test, Crj:ICR-strain male mice aged 7-9 weeks were provided. […] After 24 hours, blood sampling was performed for each mouse from the abdominal aorta under anesthesia with ether, and the collected blood were placed into plastic test tubes being placed with a blood separating agent beforehand, then after 30 min. or 1 hour, the blood sampled was centrifuged at 10,000 rpm to obtain the serum. Total cholesterol value, HDL cholesterol value and total triglyceride value in the serum were respectively measured by using the measuring kits and automatic biochemical analyser.

[2] = tested on: biosynthesis of cholesterol; experiment: Inhibitory effect on biosynthesis of cholesterol in cell-free biosystem; type: biochemical, rat (SD-strain); conditions: cell-free rat liver enzyme system, 90 min, 37° C., pH 7.4; read-out: 50% Inhibitory Concentration (IC50), cholesterol biosynthesis
Description: Inhibitory Effect on Biosynthesis of Cholesterol in Cell-free Biosystem
(1) Preparation of Enzyme Reaction System
The preparation of the enzymatic system for the biosynthesis of cholesterol in rats was carried out according to the method described in Biochimica et Biophysica Acta, Vol.486, pp 70-81, 1977.
More particularly, SD-strain female rats weighing from […] were fed for 7 to 10 days with a diet containing 2% cholestyramine to enhance their biosynthetic activity of cholesterol. After killed the rats by means of depletion of blood in midnight, the livers thereof were removed and homogenized with a double volume of 0.1 M potassium phosphate buffer solution (pH 7.4) containing 15 mM nicotine amide and 2 mM magnesium chloride by using a loose fitting-type teflon homogenizer. The supernatant obtained by centrifuging the homogenate at 12,000×g for 30 min. was further centrifuged at 105,000×g for 90 min., thereby separating it to the microsome fraction and the supernatant fraction. The supernatant obtained were kept as the fraction resulting in the precipitation in 40-80% ammonium sulfate (hereinafter referred to as "soluble fraction"). Each of the soluble fraction and the microsome fraction were independently adjusted with 0.1 M potassium phosphate buffer solution (pH 7.4) to the volumes of 1 ml/g of liver and 1 ml/3 g of liver, respectively, and were kept and used in the subsequent tests as an enzyme solution for the mixing ratio of 16:1.
(2) Method for Measuring Cholesterol Biosynthesis Activity
Cholesterol biosynthesis activity was measured according to the method described in Biochimica Biophysica Acta, Vol.486, pp 70-81, 1977. 2 μl dimethylsulfoxide solution of the test compound were added to a solution composed of 50 μl of the enzyme solution prepared in (1) described above, 0.1 M potassium phosphate buffer solution (pH 7.4), 1 mM ATP, 5 mM glucose-1-phosphate, 6 mM glutathione, 6 mM magnesium chloride, 0.04 mM coenzyme A, 0.25 mM NAD, 0.25 mM NADP and 1 mM 2-^14 C-sodium acetate (111 MBq./mmol), and the resultant solution was adjusted to the whole volume of 0.2 ml and then allowed to a reaction for 90 min. at 37° C. while shaking. The reaction was then stopped by adding 1 ml of 15% ethanol solution of potassium hydroxide, and the solution was then heated for 1 hour at 75° C. After extracted unsaponificated products with hexane from the solution, the solution was then condensed and dried to the hard state and subsequently dissolved in small volume of a mixture of chloroform and methanol (mixing ratio; 1:2). The resultant chloroform-methanol solution was spotted on a pre-coated silica gel TLC plate, then developed with a developer composed of benzene and ethyl acetate (mixing ratio; 9:1). The cholesterol spot was then taken out from the plate, and the radient activity of the spot was measured by using a liquid scintillation counter. Based on the radio-activity measured, mthe 50% inhibitory concentration (IC50) of the compounds of the present invention were determined.

[3] = read-out: % Change of Serum Lipid to Control Group: HDL Cholesterole
[4] = read-out: % Change of Serum Lipid to Control Group: Total Cholesterole
[5] = read-out: % Change of Serum Lipid to Control Group: Total glyceride

SMILES | 14C-Cholesterol in serum (cholesterol biosynthesis) [dpm/1 ml Serum] | Inhibition Rate on cholesterol biosynthesis (cholesterol biosynthesis) [%] | change in vivo at 100 mg/kg [1, 3] [%] | change in vivo at 100 mg/kg [1, 4] [%] | change in vivo at 100 mg/kg [1, 5] [%] | IC50 [2] [µM]
O=S(=O)(CCCOc1ccc(-n2ccnc2)cc1)c1ccccc1 [Compound 1-71] | 575 | 85 | 82 | -23 | -20 | 2.4
c1ccc(SCCCOc2ccc(Cn3ccnc3)cc2)cc1 [Compound 2-64, 1-[4-(3-phenylthiopropyloxy)benzyl]imidazole] | 460 | 92 |  |  |  | 6
O=S(=O)(CCCOc1ccc(Cn2ccnc2)cc1)c1ccccc1 [Compound 2-71] | 73 | 99 | 60 | -30 | -21 | 
c1ccc(OCCCOc2ccc(Cn3ccnc3)cc2)cc1 [Compound 2-72] | 3980 | 30 | 28 | -21 | -29 | 6

Source: patent US5965743A, “N-substituted imidazol derivative” (Nippon Soda Co., Ltd., priority 1994, dated 1999)
